Key:
Assay in all cases: relative viability (nuclei count vs DMSO), 5 days (fraction); higher = more cells survive
AZ505 + Dasatinib = compound: C1CCC(CC1)N(CCNCCC2=C3C(=C(C=C2)O)NC(=O)CO3)C(=O)CCNCCC4=CC(=C(C=C4)Cl)Cl [AZ505] + Cc1nc(Nc2ncc(C(=O)Nc3c(C)cccc3Cl)s2)cc(N2CCN(CCO)CC2)n1 [Dasatinib] (partner 0.075 µM)
In short: (§1)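 After 5 days of treatment, lung cancer cells in 1536-well plates were fixed and stained in a single step (final 0.05% Triton X-100, 1% formaldehyde, 1 ug/ml Hoechst) and their nuclei counted on 4× images. Treatment had been applied by pin tool the day after seeding as one drug alone or as a fixed anchor-drug dose with five library-drug doses (not always all listed) in √10 steps. Relative viability is the nuclei count of treated wells divided by that of vehicle wells, and values are medians of duplicate plates.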

Dactolisib + Trametinib = compound: Cn1c(=O)n(-c2ccc(C(C)(C)C#N)cc2)c2c3cc(-c4cnc5ccccc5c4)ccc3ncc21 [Dactolisib] + CC(=O)Nc1cccc(-n2c(=O)n(C3CC3)c(=O)c3c(Nc4ccc(I)cc4F)n(C)c(=O)c(C)c32)c1 [Trametinib] (partner 0.02 µM)
In short: as §1

Dactolisib + Foretinib = compound: Cn1c(=O)n(-c2ccc(C(C)(C)C#N)cc2)c2c3cc(-c4cnc5ccccc5c4)ccc3ncc21 [Dactolisib] + COc1cc2c(Oc3ccc(NC(=O)C4(C(=O)Nc5ccc(F)cc5)CC4)cc3F)ccnc2cc1OCCCN1CCOCC1 [Foretinib] (partner 0.25 µM)
In short: as §1

Dactolisib + Pictilisib = compound: Cn1c(=O)n(-c2ccc(C(C)(C)C#N)cc2)c2c3cc(-c4cnc5ccccc5c4)ccc3ncc21 [Dactolisib] + CS(=O)(=O)N1CCN(Cc2cc3nc(-c4cccc5[nH]ncc45)nc(N4CCOCC4)c3s2)CC1 [Pictilisib] (partner 1 µM)
In short: as §1

Cell Line	relative viability (AZ505 + Dasatinib; first compound 0.08 µM)	relative viability (AZ505 + Dasatinib; first compound 0.253 µM)	relative viability (AZ505 + Dasatinib; first compound 0.8 µM)	relative viability (AZ505 + Dasatinib; first compound 2.53 µM)	relative viability (AZ505 + Dasatinib; first compound 8 µM)	relative viability (Dactolisib + Trametinib; first compound 0.002 µM)	relative viability (Dactolisib + Trametinib; first compound 0.006325 µM)	relative viability (Dactolisib + Trametinib; first compound 0.02 µM)	relative viability (Dactolisib + Trametinib; first compound 0.06325 µM)	relative viability (Dactolisib + Trametinib; first compound 0.2 µM)	relative viability (Dactolisib + Foretinib; first compound 0.002 µM)	relative viability (Dactolisib + Foretinib; first compound 0.006325 µM)	relative viability (Dactolisib + Foretinib; first compound 0.02 µM)	relative viability (Dactolisib + Foretinib; first compound 0.06325 µM)	relative viability (Dactolisib + Foretinib; first compound 0.2 µM)	relative viability (Dactolisib + Pictilisib; first compound 0.002 µM)	relative viability (Dactolisib + Pictilisib; first compound 0.006325 µM)	relative viability (Dactolisib + Pictilisib; first compound 0.02 µM)	relative viability (Dactolisib + Pictilisib; first compound 0.06325 µM)	relative viability (Dactolisib + Pictilisib; first compound 0.2 µM)
LK-2	0.254	0.327	0.415	0.431	0.366	0.609	0.761	0.554	0.225	0.21	1.19	0.997	0.766	0.444	0.196	0.479	0.547	0.499	0.33	0.251
NCI-H1437	0.346	0.334	0.58	0.378	0.376	0.558	0.507	0.487	0.369	0.292	1.37	1.28	1.25	1.24	1.34	0.452	0.421	0.371	0.268	0.165
COR-L23	0.351	0.427	0.358	0.383	0.475	0.602	0.453	0.305	0.176	0.144	1.2	0.982	0.948	0.369	0.34	0.925	0.656	0.546	0.177	0.151
ABC-1	0.539	0.524	0.542	0.58	0.515						1.03	1.11	0.665	0.427	0.5	0.675	0.618	0.627	0.402	0.331
NCI-H522	0.923	0.843	0.801	0.877	0.948	0.69	0.678	0.921	0.504	0.512										
NCI-H838	0.233	0.273	0.298	0.28	0.308	0.456	0.35	0.34	0.179	0.145	1.1	0.876	0.606	0.288	0.342	0.351	0.302	0.239	0.204	0.218
SW 900	0.584	0.458	0.54	0.919	0.658	0.923	0.718	0.746	0.516	0.318	1.03	0.828	0.832	0.576	0.3					
A549											1.03	0.84	0.678	0.202	0.21	0.544	0.356	0.3	0.145	0.112
A-427	0.659	0.693	0.622	0.749	0.682	0.669	0.637	0.694	0.4	0.369	1.2	1.05	0.873	0.56	0.46	0.648	0.674	0.718	0.49	0.498
NCI-H1792	0.734		0.697	0.69	0.684	0.498	0.407	0.267	0.174	0.0814						0.323	0.246	0.218	0.0901	0.0962
LCLC-97TM1	0.77	0.795	0.767	0.674	0.88	0.2	0.187	0.167	0.135	0.104	1.05	0.923	0.688	0.668	0.367	0.252	0.151	0.169	0.145	0.12
NCI-H1703												0.389	0.381	0.281	0.325			0.257	0.228	0.192
LCLC-103H	0.407	0.415	0.393	0.481	0.451	0.664	0.604	0.581	0.515	0.42	1.05	0.763	0.654	0.517	0.303	0.611	0.583	0.602	0.577	0.498
PC-3 [JPC-3]	0.848	0.968	0.864	0.937	0.858	0.718	0.673	0.76	0.595	0.451	1.13	1.06	1.03	0.816	0.565	0.78	0.784	0.696	0.697	0.572
BEN	0.359	0.327	0.386	0.355	0.296	0.925	0.952	0.959	0.61	0.411	0.898	0.632	0.647	0.57	0.422	0.505	0.529	0.463	0.4	0.282
Calu-6											0.826	0.915	0.879	0.531	0.543	0.935	0.855	0.729	0.414	0.352
NCI-H1648						0.467	0.434	0.647	0.387	0.24										
EBC-1											0.102	0.0977	0.103	0.103	0.0903	0.332	0.279	0.279	0.204	0.171
NCI-H1299											1.09	1.1	1.11	0.982	1.06	0.794	0.701	0.659	0.351	0.253
NCI-H2342	0.312	0.317	0.316	0.346	0.351	0.825	0.72	0.811	0.538	0.54	1.1	0.96	0.855	0.679	0.525					
IA-LM											1.28	1.07	0.837	0.497	0.453	0.371	0.331	0.219	0.116	0.0809

Source: the supplement of paper PMC10307832
